Source: patent US12559496B2, “Imidazopyrimidines as modulators of IL-17” (Janssen Pharmaceutica NV, priority 2020, dated 2026)

Assays:
[1] = test system: IL-17A-induced G-CSF production in human normal keratinocytes (NHK); test: NHK Assay: IL-17A-induced G-CSF production in human normal keratinocytes; type: cell-based; conditions: IL-17A 5 ng/mL, 24 h, 5% FBS, simple average if tested more than once
Method: IL-17A acts directly on keratinocytes through binding to dimeric receptor IL-17RA/RC and drives the production of a number of inflammatory mediators known to be elevated in psoriasis lesional tissue. IL-17A small molecule inhibitors that block the IL-17A to interact with IL-17R would inhibit the IL-17A signaling in its targeted cells such as keratinocytes. The compound functional activity is evaluated for its impact on IL-17A-induced G-CSF production in human normal keratinocytes (NHK).
Adult normal human keratinocytes are cultured in keratinocyte growth medium (Lonza) in a flask till reaching ˜ 90% confluence, then cells are transferred to a 384-well plate at density of 3000-4000 cell/well. Recombinant human IL-17A (Gibco PHC9174) is pre-incubated with titrated compound or DMSO for 1 h at rt then added to the cell culture plate. The final concentration of IL-17A is 5 ng/mL and DMSO is 0.2%, in the culture containing 5% FBS. Cells are cultured/treated for 24 h at 37° C. Supernatants are collected and G-CSF production is measured through HTRF technology using Human G-CSF Kit (CisBio). G-CSF concentration was extrapolated from the standard curve and IC50 is determined using GraphPad Prism. Cell viability is also evaluated using CellTiter-Glo kit (Promega) and effect of compound on cell viability is compared to DMSO control.

[2] = target: IL-17A(FLAG-Tagged): IL-17RA(His-Tagged) (Homo sapiens, UniProt Q16552, K93Q); test: IL-17A(FLAG-Tagged): IL-17RA(His-Tagged) Binding Disruption Eu-HTRF Assay; conditions: disruption of IL-17A/IL-17RA binding; simple average if tested more than once
Chain of UniProt Q16552 (Q16552 with tags, fused parts or gaps K93Q): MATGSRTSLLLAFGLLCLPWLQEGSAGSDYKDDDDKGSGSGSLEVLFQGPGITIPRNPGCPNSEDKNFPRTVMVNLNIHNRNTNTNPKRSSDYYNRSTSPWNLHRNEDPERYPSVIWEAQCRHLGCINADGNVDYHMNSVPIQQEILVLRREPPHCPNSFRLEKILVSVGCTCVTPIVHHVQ
Source text: IL-17A(FLAG-Tagged): IL-17RA(His-Tagged) Binding Disruption Eu-HTRF Assay
An antibody directed against the FLAG tag of IL-17A (SEQ ID NO: 1) is labeled with the HTRF donor chromophore (Europium-cryptate). IL-17A is present as a dimer that is “locked into” this quaternary structure due to the formation of loop-spanning […] disulfide bridges. The construct of IL-17RA used in the assay excludes the […] portion of the receptor and is fused to a C-terminal 10×His tag (SEQ ID NO:2). An antibody directed against the His tag of the IL-17RA chimera is labeled with the HTRF acceptor chromophore (“D2”). The fluorescence-resonance energy transfer (FRET) depends on the vicinity of the donor chromophore to the acceptor, and interruption of the binding between the IL-17A and IL-17RA causes the reduction/loss of FRET. Therefore, this assay allows to evaluate the compound effect on the binding IL-17A and IL-17RA by monitoring the fluorescence intensity of donor vs acceptor. The assay is run as described below.
40 nL of 2-fold serial diluted compound solution for total 22 dilution points is added into each well of a 1536-well, white, low-volume, non-binding plate (Greiner #782904), then 2 μL of FLAG tagged IL-17A at 2× final concentration (2.5 nM) in solution of PBS+0.01% Triton-X100 is added to each well. The assay plate is briefly centrifuged then incubated for 1 h at rt. A mixed solution is prepared containing 2×5 nM 10HIS×IL-17RA, 2×2.5 nM Eu-anti-FLAG (CISBIO), 2×5 nM D2-anti-HIS (CISBIO) in PBS+0.01% Triton-X100+200 mM Potassium Fluoride (Sigma 60238) and 2 μL of mix is added to each well of the assay plate. The plate is briefly centrifuged then incubated for 2 h at rt. The HTRF intensities at the wavelength of donor (620 nm) and acceptor (665 nm) are measured using BMG Pherastar. The ratio between intensities at two wavelengths is calculated and plotted against the compound concentration and the data is fitted to a one-site competition model to yield IC50 of the compound.

| SMILES | IC50 [2] | IC50 [1] | IC50 ([1]; Homo sapiens, Keratinocyte) |
| --- | --- | --- | --- |
| CC(CC(=O)N[C@@H](c1ccn2cc([C@@H](NC(=O)c3ncnn3CC3CC3)C3CCC(F)(F)CC3)nc2n1)C1CC1)C(F)(F)F (single isomer, unassigned) [Example 20, N—((S)-(7-((R)-Cyclopropyl((R*)-4,4,4-trifluoro-3-methylbutanamido)methyl)imidazo[1,2-a]pyrimidin-2-yl)(4,4-difluorocyclohexyl)methyl)-1-(cyclopropylmethyl)-1H-1,2,4-triazole-5-carboxamide] | 470 nM | 2800 nM | – |
| Cc1c(C(=O)N[C@H](c2cn3ccc(C(NC(=O)CCC(F)(F)F)C4CC4)nc3n2)C2CCC(F)(F)CC2)cnn1CCC(F)(F)F (single isomer, unassigned) [Example 38, N—((S)-(7-((S*)-Cyclopropyl(4,4,4-trifluorobutanamido)methyl)imidazo[1,2-a]pyrimidin-2-yl)(4,4-difluorocyclohexyl)methyl)-5-methyl-1-(3,3,3-trifluoropropyl)-1H-pyrazole-4-carboxamide] | 890 nM | 930 nM | – |
| O=C(CCC(F)(F)F)NC(c1ccn2cc([C@@H](NC(=O)c3cnn(CCC(F)(F)F)n3)C3CCC(F)(F)CC3)nc2n1)C1CC1 (single isomer, unassigned) [Example 40, N—((S)-(7-((S*)-Cyclopropyl(4,4,4-trifluorobutanamido)methyl)imidazo[1,2-a]pyrimidin-2-yl)(4,4-difluorocyclohexyl)methyl)-2-(3,3,3-trifluoropropyl)-2H-1,2,3-triazole-4-carboxamide] | 310 nM | 360 nM | – |
| O=C(CCC(F)(F)F)NC(c1ccn2cc([C@@H](NC(=O)c3cnn(CCC(F)(F)F)n3)C3CCC(F)(F)CC3)nc2n1)C1CC1 (single isomer, unassigned) [Example 41, N—((S)-(7-((R*)-Cyclopropyl(4,4,4-trifluorobutanamido)methyl)imidazo[1,2-a]pyrimidin-2-yl)(4,4-difluorocyclohexyl)methyl)-2-(3,3,3-trifluoropropyl)-2H-1,2,3-triazole-4-carboxamide] | 2400 nM | 2500 nM | – |
| O=C(CCC(F)(F)F)NC(c1ccn2cc([C@@H](NC(=O)c3ccn(CCC(F)(F)F)n3)C3CCC(F)(F)CC3)nc2n1)C1CC1 (single isomer, unassigned) [Example 43, N—((S)-(7-((R*)-Cyclopropyl(4,4,4-trifluorobutanamido)methyl)imidazo[1,2-a]pyrimidin-2-yl)(4,4-difluorocyclohexyl)methyl)-1-(3,3,3-trifluoropropyl)-1H-pyrazole-3-carboxamide] | 5700 nM | ~20000 nM | – |
| Cn1nccc1C(=O)N[C@H](c1cn2ccc(C(NC(=O)CCC(F)(F)F)C3CC3)nc2n1)C1CCC(F)(F)CC1 (single isomer, unassigned) [Example 44, N—((S)-(7-((S*)-Cyclopropyl(4,4,4-trifluorobutanamido)methyl)imidazo[1,2-a]pyrimidin-2-yl)(4,4-difluorocyclohexyl)methyl)-1-methyl-1H-pyrazole-5-carboxamide] | 220 nM | 170 nM | – |
| Cn1nccc1C(=O)N[C@H](c1cn2ccc(C(NC(=O)CCC(F)(F)F)C3CC3)nc2n1)C1CCC(F)(F)CC1 (single isomer, unassigned) [Example 45, N—((S)-(7-((R*)-Cyclopropyl(4,4,4-trifluorobutanamido)methyl)imidazo[1,2-a]pyrimidin-2-yl)(4,4-difluorocyclohexyl)methyl)-1-methyl-1H-pyrazole-5-carboxamide] | 2900 nM | 2100 nM | – |
| CC(C)n1nccc1C(=O)N[C@H](c1cn2ccc(C(NC(=O)CCC(F)(F)F)C3CC3)nc2n1)C1CCC(F)(F)CC1 (single isomer, unassigned) [Example 47, N—((S)-(7-((R*)-Cyclopropyl(4,4,4-trifluorobutanamido)methyl)imidazo[1,2-a]pyrimidin-2-yl)(4,4-difluorocyclohexyl)methyl)-1-isopropyl-1H-pyrazole-5-carboxamide] | 410 nM | 120 nM | – |
| O=C(CCC(F)(F)F)NC(c1ccn2cc([C@@H](NC(=O)c3cnn(CCC(F)(F)F)c3)C3CCC(F)(F)CC3)nc2n1)C1CC1 (single isomer, unassigned) [Example 49, N—((S)-(7-((S*)-Cyclopropyl(4,4,4-trifluorobutanamido)methyl)imidazo[1,2-a]pyrimidin-2-yl)(4,4-difluorocyclohexyl)methyl)-1-(3,3,3-trifluoropropyl)-1H-pyrazole-4-carboxamide] | 500 nM | – | 740 nM |
| Cc1conc1C(=O)N[C@H](c1cn2ccc([C@H](NC(=O)CC3CC3(F)F)C3CC3)nc2n1)C1CCC(F)(F)CC1 (single isomer, unassigned) [Example 53, N—((S)-(7-((R)-Cyclopropyl(2-((S*)-2,2-difluorocyclopropyl)acetamido)methyl)imidazo[1,2-a]pyrimidin-2-yl)(4,4-difluorocyclohexyl)methyl)-4-methylisoxazole-3-carboxamide] | 490 nM | – | 2300 nM |

Further lines, with some results ahead:

| IC50 [2] | SMILES | IC50 [1] | IC50 ([1]; Homo sapiens, Keratinocyte) |
| --- | --- | --- | --- |
| 13000 nM | Cc1c(C(=O)N[C@H](c2cn3ccc(C(NC(=O)CCC(F)(F)F)C4CC4)nc3n2)C2CCC(F)(F)CC2)cnn1CCC(F)(F)F (single isomer, unassigned) [Example 39, N—((S)-(7-((R*)-Cyclopropyl(4,4,4-trifluorobutanamido)methyl)imidazo[1,2-a]pyrimidin-2-yl)(4,4-difluorocyclohexyl)methyl)-5-methyl-1-(3,3,3-trifluoropropyl)-1H-pyrazole-4-carboxamide] | ~20000 nM | – |
| 480 nM | O=C(CCC(F)(F)F)NC(c1ccn2cc([C@@H](NC(=O)c3ccn(CCC(F)(F)F)n3)C3CCC(F)(F)CC3)nc2n1)C1CC1 (single isomer, unassigned) [Example 42, N—((S)-(7-((S*)-Cyclopropyl(4,4,4-trifluorobutanamido)methyl)imidazo[1,2-a]pyrimidin-2-yl)(4,4-difluorocyclohexyl)methyl)-1-(3,3,3-trifluoropropyl)-1H-pyrazole-3-carboxamide] | 520 nM | – |
| 2600 nM | CC(C)n1nccc1C(=O)N[C@H](c1cn2ccc(C(NC(=O)CCC(F)(F)F)C3CC3)nc2n1)C1CCC(F)(F)CC1 (single isomer, unassigned) [Example 46, N—((S)-(7-((S*)-Cyclopropyl(4,4,4-trifluorobutanamido)methyl)imidazo[1,2-a]pyrimidin-2-yl)(4,4-difluorocyclohexyl)methyl)-1-isopropyl-1H-pyrazole-5-carboxamide] | 2600 nM | – |
| 360 nM | Cc1nonc1C(=O)N[C@H](c1cn2ccc([C@H](NC(=O)CC3CC3(F)F)C3CC3)nc2n1)C1CCC(F)(F)CC1 (single isomer, unassigned) [Example 51, N—((S)-(7-((R)-Cyclopropyl(2-((S*)-2,2-difluorocyclopropyl)acetamido)methyl)imidazo[1,2-a]pyrimidin-2-yl)(4,4-difluorocyclohexyl)methyl)-4-methyl-1,2,5-oxadiazole-3-carboxamide] | – | 2000 nM |
| 680 nM | Cc1nonc1C(=O)N[C@H](c1cn2ccc([C@H](NC(=O)CC3CC3(F)F)C3CC3)nc2n1)C1CCC(F)(F)CC1 (single isomer, unassigned) [Example 52, N—((S)-(7-((R)-Cyclopropyl(2-((R*)-2,2-difluorocyclopropyl)acetamido)methyl)imidazo[1,2-a]pyrimidin-2-yl)(4,4-difluorocyclohexyl)methyl)-4-methyl-1,2,5-oxadiazole-3-carboxamide] | 2800 nM | – |
